For this experiment, the system named is CEM cells HIV-1 protection, formazan growth assay. Put plainly: NCI AIDS Antiviral Assay. Conditions: for IC50: measured here: growth of uninfected CEM cells. A digest of the protocol:
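Protection of CEM cells against HIV-1 measured as cell growth via soluble formazan read-out, with five concentrations tested on both infected and uninfected cells; failure to protect may reflect toxicity.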

“And” between values parts separate entries of the source, which are not always exact repeats. Equal values may be shown once. The source made the active and inactive calls.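 Rule for the calls: active = compounds giving half or more protection of infected cells from virus-caused growth loss, again on retest; inactive = the rest.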

For `CCn1c2ccccc2c2ccc3c(c21)C(=O)C=CC3=O`, the EC50 was above 26.3 µM and the IC50 was above 26.3 µM. For the compound `N#CC1=C(N)N(c2ccccc2)C(=S)N2CCCCCCCC12` (centres undefined), the EC50 was above 200 µM and the IC50 was 186 µM.

In the case of `CN(C)CCSc1ccc(-c2ccc(-c3ccc(SCCN(C)C)cc3)nn2)cc1`, the 50% effective concentration (EC50) was 6.92 µM and the half-maximal inhibitory concentration (IC50) is 8.13 µM. `CC(=O)O[C@H]1C(N(C)C(=O)c2ccccc2)CC[C@]2(C)C3CC[C@@]4(C)C(CC(O)[C@@H]4C(C)N(C)C)[C@@H]3CCC12` (some centres undefined): the EC50 was above 25.1 µM and the IC50 is above 25.1 µM. As for `CC(C)C(Nc1c2ccccc2[n+](C)c2ccccc12)C(=O)O` (centres undefined), the result was inactive. For the compound `O=C1NC(N/N=C\C(O)C(O)C(O)C(O)CO)=N/C1=C/c1ccccc1` (centres undefined), the EC50 is above 200 µM; the half-inhibitory concentration (IC50) was 105 µM and 31.6 µM and > 200 µM. Regarding `CC(=O)OCC1OC(n2cnc3nc(Br)[nH]c(=O)c32)C(OC(C)=O)C1OC(C)=O` (centres undefined), the concentration giving a half-maximal response (EC50) is 61.7 µM and the concentration for half-maximal inhibition (IC50) was above 200 µM. On to `CCC[CH2][Sn]([CH2]CCC)([O]C(=O)c1nccnc1N)[O]C(=O)c1nccnc1N`, for which the EC50 is above 51.3 µM and the half-inhibitory concentration (IC50) worked out at 0.288 µM.

As for `CC(C)CC[CH2][Pb]([CH2]CCC(C)C)([CH2]CCC(C)C)[O]C(=O)C(Cl)(Cl)Cl`, the EC50 was above 200 µM and the 50% inhibitory concentration (IC50) turned out to be 3.09 µM. Turning to `CN(C)CCCCN1c2ccccc2Sc2cc(N=[N+]=[N-])ccc21`, the EC50 is above 200 µM and the IC50 stood at 2.45 µM. The like results for `CCOC(=O)c1c(N)sc2c1C(C(=O)OCC)CC2` (centres undefined) were, in that order, above 200 µM and 174 µM.

Turning to `Cc1cc(=O)c2c(O)cc(O)c(C3CCN(C)CC3O)c2o1` (centres undefined), the half-maximal effective concentration (EC50) was above 1020 µM and the IC50 is 17 µM.

As to `Cc1ccccc1N(CC(=O)O)S(=O)(=O)c1ccccc1`, the outcome was inactive. With `Cc1ccccc1Cn1nc2ccccc2cc1=O`, the EC50 is above 380 µM and the IC50 is above 380 µM. Regarding `CC(NC(=O)c1ccccc1SC(=O)CCCCC[n+]1ccccc1)C(N)=O` (centres undefined), the EC50 was 2.75 µM and the IC50 stood at 30.2 µM. For `CCOC(=O)CN1CCC(C(O)c2cc3ccccc3[nH]2)CC1` (centres undefined), the EC50 was above 537 µM and the IC50 is 525 µM. The like results for `Cn1c([N+](=O)[O-])cnc1CSc1ccc(C#N)cc1` were, in that order, 117 µM and above 200 µM. For the compound `Cc1ncc([N+](=O)[O-])n1CC[N+](C)([O-])CCCCn1ccnc1[N+](=O)[O-]` (centres undefined), the outcome was inactive. On to `N#C/C(=C\c1ccc(O)c(O)c1)C(=S)NCc1ccccc1`, for which the EC50 was above 200 µM and the IC50 came out at 32.4 µM.

Turning to `COc1cc(C(=O)n2c(=O)oc(=O)c3cc([N+](=O)[O-])ccc32)cc(OC)c1OC`, the EC50 is above 200 µM and the 50% inhibitory concentration (IC50) is above 200 µM. On to `CCOC(=O)CON=c1c2ccccc2ccc2ccccc12`, for which the EC50 is above 200 µM and the IC50 is above 200 µM. In the case of `Nc1nc(Cl)c2ncn(C3C=CC(O)CC3)c2n1` (centres undefined), the EC50 was above 933 µM and the IC50 amounted to 52.5 µM. As for `O=C(Nc1ccc(N=Nc2ccc(S(=O)(=O)O)cc2)cc1)c1ccc(N=Nc2ccc3c(S(=O)(=O)O)cccc3c2O)cc1`, the EC50 was 30.9 µM and the half-inhibitory concentration (IC50) was determined as 195 µM. Take `CC(=O)NC(CCCN(Cc1ccccc1)C(=O)NCCCl)C(=O)NCc1ccccc1` (centres undefined): the EC50 was above 389 µM and the IC50 was found to be 347 µM. The matching figures for `COc1ccc(-c2c(-c3ccccc3)c(C)nc3[nH]c(=S)[nH]c(=S)c23)cc1OC`: above 200 µM and 43.7 µM.

`Cc1ccc(C(=O)c2cccc(C)c2C(=O)O)c(C)c1`: the 50% effective concentration (EC50) was above 200 µM and the IC50 is above 200 µM. Consider `COC(=O)N/N=C/c1oc(-c2ccccc2)c(-c2ccccc2)c1[N+](=O)[O-]`, for which the EC50 was above 61.7 µM and the IC50 is above 61.7 µM.

Take `CCN(CC)CCCCC1CCN(CC(=O)N2c3ccccc3NC(=O)CC2C)CC1` (centres undefined): the EC50 was above 251 µM and the IC50 was 38.9 µM. For `NNC(=S)N/N=C(\c1nc2ccc(Cl)cc2[nH]c1=O)C(O)c1cccc([N+](=O)[O-])c1` (centres undefined), the EC50 was above 562 µM and the IC50 turned out to be 120 µM. As to `COC(OC)/C(C)=N/NC1=Nc2ccc(Cl)cc2C(c2ccccc2Cl)=NC1`, the EC50 is above 12.3 µM and the 50% inhibitory concentration (IC50) is above 12.3 µM.

Consider `COC1CC2(C[Si](C)(C)C)OC(=O)OC2C(C)O1` (centres undefined), for which the outcome was inactive. Consider `O=C(Nc1ccccc1[N+](=O)[O-])C(=O)C(C(=O)c1ccccc1-c1ccccc1)C1OC(=O)c2ccccc21` (centres undefined), for which the EC50 is above 50.1 µM and the IC50 was determined as 25.7 µM. Regarding `CC(C)(N=NC(C)(C)C(=N)N)C(=N)N`, the EC50 was above 200 µM and the half-inhibitory concentration (IC50) was above 200 µM. On to `NCC[PH+](c1ccccc1)c1ccccc1.NCC[PH+](c1ccccc1)c1ccccc1.[Cl-].[Pt+4]`, for which the EC50 was above 200 µM and the IC50 is 72.4 µM. For `CC1(C)OC(=O)C2C3C=CC(C2C(=O)O)C31` (centres undefined), the EC50 was above 1120 µM and the IC50 was above 1120 µM.

Regarding `Cc1cc(O)c2c(c1)C[C@@H](O)C1=C2C(=O)c2c(O)ccc(OC3CC(O)C(OC4CC(OC5CCC(OC6CC(O)C(OC7CC(OC8CCC(O)C(C)O8)C(O)C(C)O7)C(C)O6)C(C)O5)C(O)C(C)O4)C(C)O3)c2C1=O` (some centres undefined), the EC50 was above 43.7 µM and the IC50 stood at 0.2 µM.

On to `CN(C)c1cccc(NC2=NCCO2)c1`, for which the EC50 was above 200 µM and the IC50 was 33.9 µM. The like results for `COc1ccc2c(c1)CCC1OC(c3cccnc3)OC21` (centres undefined) were, in that order, above 200 µM and 30.2 µM. The like results for `CC1(C)O[C@]2(C)CC[C@@H]1[C@@H](O)[C@@H]2N1CCCC1` were, in that order, above 417 µM and above 417 µM. With `Cc1ccc(NC(=O)C(=O)C(C#N)c2ccccc2C)cc1C` (centres undefined), the EC50 is above 23.4 µM and the IC50 was above 23.4 µM.

Consider `Cc1ccc(C2C(C(=O)C(C)(C)C)N2S(=O)(=O)c2ccc(C)cc2)cc1` (centres undefined), for which the EC50 was above 200 µM and the IC50 was above 200 µM. Regarding `CN(C)C(=S)/N=c1\ss/c(=N\S(=O)(=O)c2ccccc2)n1N(C)C`, the outcome was inactive.

As for `O=c1cc(-c2ccccc2)oc2cc(Oc3nnnn3-c3ccccc3)ccc12`, the EC50 is above 200 µM and the half-inhibitory concentration (IC50) is 42.7 µM. The matching figures for `CC(=S)N(c1ccccc1)c1ccccc1`: above 200 µM and 158 µM. The like results for `COc1cc(N(CCC#N)CCC#N)ccc1/C(N=Nc1ccc(C)cc1)=N/NC(=O)c1cc(Br)ccc1O` were, in that order, above 200 µM and 12.6 µM.

In turn, `O=S(=O)(NCCO)c1cc[c]([Sb](=[O])([OH])[OH])cc1` came in with a concentration giving a half-maximal response (EC50) above 200 µM and an IC50 above 200 µM.

Take `CS(=O)(=O)Oc1nn2c(OS(C)(=O)=O)nnc2s1`: the EC50 was above 200 µM and the 50% inhibitory concentration (IC50) is 28.8 µM. The matching figures for `O=C1Cc2ccccc2CCc2ccsc21`: 64.6 µM and 83.2 µM. The matching figures for `CCSc1nc2sc(C)c(C)c2c(=O)n1-c1ccc(C(=O)O)cc1`: above 200 µM and above 200 µM.

Take `COc1ccc(C2c3cc4c(cc3C(O)C3CCC(=O)N23)OCO4)cc1` (centres undefined): the EC50 was above 200 µM and the IC50 was above 200 µM. `CCOC(=O)C1=C(NNC(=O)Cc2ccccc2)CSC1=Nc1ccccc1`: the EC50 was above 18.2 µM and the IC50 was above 18.2 µM.

Turning to `O=[As](O)(O)c1cccc(F)c1`, the concentration for a half-maximal effect (EC50) is above 200 µM and the IC50 came to 107 µM. `Cc1ccccc1S(=O)(=O)Nn1cnc2ccc(S(=O)(=O)Nc3ccc(Cl)cc3)cc2c1=O`: the outcome was inactive. As for `CCOC(=O)C(C)NC(=O)C(C)NC(=O)C(C)NC(=O)C(C)NC(=O)C(C)NC(=O)OCc1ccccc1` (centres undefined), the EC50 was above 200 µM and the IC50 is above 200 µM. On to `CCCO/N=C\c1c2c(O)c3c(O)c(C)c4c(c3c1O)C(=O)C(C)(O/C=C\C(OC)C(C)C(OC(C)=O)C(C)C(O)C(C)C(O)C(C)/C=C\C=C(\C)C(=O)N2)O4` (centres undefined), for which the EC50 was above 100 µM and the half-maximal inhibitory concentration (IC50) came to 5.25 µM. The like results for `O=C(NNC(=S)Nc1ccccc1)c1cc(-c2ccccc2)nc2ccccc12` were, in that order, above 200 µM and 21.9 µM. Take `C=CC1(c2ccccc2Cl)N/C(=C/OCC)CO1` (centres undefined): the EC50 was above 26.9 µM and the IC50 was above 26.9 µM. `Nc1ccc([N+](=O)[O-])cc1CN1C(=O)c2ccccc2C1=O`: the EC50 was above 200 µM and the IC50 is above 200 µM.

Regarding `S=C(Nc1ccc2cn[nH]c2c1)Nc1ccc2cn[nH]c2c1`, the EC50 was above 309 µM and the 50% inhibitory concentration (IC50) turned out to be 129 µM. The matching figures for `Nc1nc(C(=O)O)c(N)c(=O)[nH]1`: above 200 µM and above 200 µM.

Take `COc1ccc(OC)c(/C=C/NC=O)c1`: the EC50 was above 200 µM and the IC50 is above 200 µM.

As for `CCNC(=O)CCN(C(=O)O)S(=O)(=O)c1ccc(NC(=O)c2ccccc2)cc1`, the EC50 is above 603 µM and the half-maximal inhibitory concentration (IC50) is above 603 µM. Regarding `O=C1N(O)C2(C=CCCC2)/C(=N/O)C12CCCCC2` (centres undefined), the EC50 was above 70.8 µM and the 50% inhibitory concentration (IC50) was above 70.8 µM.

Turning to `CCC1=C(C)/C(=C/c2[nH]c(C(Br)Br)c(CC)c2C)N=C1C(Br)Br`, the result was inactive. Take `OC(CC(O)(C(F)(F)Cl)C(F)(F)Cl)c1ccccc1` (centres undefined): the EC50 was above 200 µM and the concentration for half-maximal inhibition (IC50) was determined as 44.7 µM.

As to `CCOC(=O)C1(Cc2ccc3c(c2)CCC3)Cc2cc3c(cc2C1=O)CCC3` (centres undefined), the EC50 is above 200 µM and the IC50 is 23.4 µM. For `Nc1nc2c(c(-c3cccc(Cl)c3)n1)COC/C2=C\c1cccc(Cl)c1`, the EC50 is above 200 µM and the IC50 is above 200 µM. Consider `NC(=O)NO`, for which the result was inactive and the IC50 stood at 112 µM. Consider `C[Si](C)(C)C1(Sc2ccccc2)SCCCS1`, for which the result was inactive.

`Cc1ccc2[nH]c3c(c2c1)CCC/C3=N/N=C(N)N`: the EC50 is above 20 µM and the half-inhibitory concentration (IC50) came to 3.02 µM. For the compound `CCCc1c(C(=O)OCC)[nH]c(-c2ccc(-c3[nH]c(C(=O)OCC)c(CCC)c3C(=O)OCC)o2)c1C(=O)OCC`, the EC50 is above 4.79 µM and the half-inhibitory concentration (IC50) was above 4.79 µM.

The values are drawn from PubChem BioAssay AID179 (DTP/NCI, 2004).
